Read-outs that look alike come from different tables or passages of the source.
Key:
[1] = biological target: WRN (BV08), human Werner helicase (Uniprot Q14191, amino acids 517-1235 with L1074F point mutation) (Homo sapiens (Human), UniProt Q14191, L1074F); assay: WRN (BV08) ADP-Glo assay; type: biochemical; details: class symbols A-E, read-out: ADP-Glo_hWRN_IC50
[2] = test system: p21 induction in HCT116 cells; assay: p21 induction in HCT116 cells; type: cell-based; details: Homo sapiens, HCT-116, 24 h, read-out: P21_EC50
Method in brief: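 EC50 from non-linear curve fit of p21 immunofluorescence (800 nm), with GAPDH (700 nm) read alongside. DMSO and a reference WRN inhibitor served as low and high controls. Cells (2,000/well) got 11 compound concentrations in duplicate for 24 h at 37 °C.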

[3] = HCT116 cells, 24 h compound incubation

Sequence of WRN (BV08), human Werner helicase (Uniprot Q14191, amino acids 517-1235 with L1074F point mutation) (Q14191 other isoform, or with tags, fused parts or gaps L1074F (already in the parent)): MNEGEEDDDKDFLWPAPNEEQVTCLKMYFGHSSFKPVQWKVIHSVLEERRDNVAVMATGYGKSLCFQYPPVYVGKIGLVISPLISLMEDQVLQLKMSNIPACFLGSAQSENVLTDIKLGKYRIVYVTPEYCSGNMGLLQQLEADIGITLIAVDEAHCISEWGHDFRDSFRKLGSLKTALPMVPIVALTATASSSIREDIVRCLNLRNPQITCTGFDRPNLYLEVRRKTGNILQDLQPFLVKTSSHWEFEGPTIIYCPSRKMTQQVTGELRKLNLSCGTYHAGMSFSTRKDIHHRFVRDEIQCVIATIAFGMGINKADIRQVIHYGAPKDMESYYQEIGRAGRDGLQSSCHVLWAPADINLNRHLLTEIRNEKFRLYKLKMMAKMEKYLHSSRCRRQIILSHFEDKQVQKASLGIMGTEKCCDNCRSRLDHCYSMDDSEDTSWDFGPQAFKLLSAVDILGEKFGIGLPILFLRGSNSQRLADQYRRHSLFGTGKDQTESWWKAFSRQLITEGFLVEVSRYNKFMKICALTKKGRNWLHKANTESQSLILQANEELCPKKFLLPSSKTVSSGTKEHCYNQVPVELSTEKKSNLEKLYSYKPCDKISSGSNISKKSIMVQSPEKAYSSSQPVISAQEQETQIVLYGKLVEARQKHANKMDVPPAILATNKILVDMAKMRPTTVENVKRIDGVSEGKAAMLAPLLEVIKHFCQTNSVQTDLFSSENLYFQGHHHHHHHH

Row | Compound | IC50 [1] [nM] | EC50 [2] [nM] | EC50 [2, 3] [nM]
1 | CCc1c(N2CCN(C(=O)c3ncnc(C)c3O)CC2)c(=O)c2nc(N(C)C)c(F)cc2n1CC(=O)Nc1ccc(C(F)(F)F)cc1Cl [I-109, N-(2-chloro-4-(trifluoromethyl)phenyl)-2-(6-(dimethylamino)-2-ethyl-7-fluoro-3-(4-(5-hydroxy-6-methylpyrimidine-4-carbonyl)piperazin-1-yl)-4-oxo-1,5-naphthyridin-1(4H)-yl)acetamide] | 5 to 50 | 500 to 2000 | 
2 | CCc1c(N2CCN(C(=O)c3ncnc(C)c3O)[C@H]3CC[C@@H]32)c(=O)c2nc(N(C)C)cnc2n1CC(=O)NC12CC(C(F)(F)F)(C1)C2 [I-110, 2-(2-(dimethylamino)-6-ethyl-7-((1S,6S)-5-(5-hydroxy-6-methylpyrimidine-4-carbonyl)-2,5-diazabicyclo[4.2.0]octan-2-yl)-8-oxopyrido[2,3-b]pyrazin-5(8H)-yl)-N-(3-(trifluoromethyl)bicyclo[1.1.1]pentan-1-yl)acetamide] | 100 to 500 |  | > 5000
3 | CCc1c(N2CCN(C(=O)c3ncnc(C)c3O)[C@H]3CC[C@@H]32)c(=O)c2nc(C=C(C)C)nnc2n1CC(=O)Nc1ccc(C(F)(F)F)cc1Cl [I-111, N-(2-chloro-4-(trifluoromethyl)phenyl)-2-(7-ethyl-6-((1S,6S)-5-(5-hydroxy-6-methylpyrimidine-4-carbonyl)-2,5-diazabicyclo[4.2.0]octan-2-yl)-3-(2-methylprop-1-en-1-yl)-5-oxopyrido[3,2-e] [1,2,4]triazin-8(5H)-yl)acetamide] | ≤ 5 |  | < 500
4 | CCc1c(N2CCN(C(=O)c3ncnc(C)c3O)CC2)c(=O)c2nc3cc(C)oc3nc2n1CC(=O)Nc1ccc(C(F)(F)F)cc1Cl [I-112, N-(2-chloro-4-(trifluoromethyl)phenyl)-2-(7-ethyl-6-(4-(5-hydroxy-6-methylpyrimidine-4-carbonyl)piperazin-1-yl)-2-methyl-5-oxofuro[2,3-b]pyrido[3,2-e]pyrazin-8(5H)-yl)acetamide] | 5 to 50 |  | < 500
5 | CCc1c(N2CCN(C(=O)c3ncnc(C)c3O)CC2)c(=O)c2nc3sc(C)cc3nc2n1CC(=O)Nc1ccc(C(F)(F)F)cc1Cl [I-113, N-(2-chloro-4-(trifluoromethyl)phenyl)-2-(6-ethyl-7-(4-(5-hydroxy-6-methylpyrimidine-4-carbonyl)piperazin-1-yl)-2-methyl-8-oxopyrido[2,3-b]thieno[2,3-e]pyrazin-5(8H)-yl)acetamide] | ≤ 5 |  | < 500
6 | CCc1c(N2CCN(C(=O)c3ncnc(C)c3O)[C@H]3CC[C@@H]32)c(=O)c2nc3nc(C)sc3nc2n1CC(=O)Nc1ccc(C(F)(F)F)cc1Cl [I-114, N-(2-chloro-4-(trifluoromethyl)phenyl)-2-(6-ethyl-7-((1S,6S)-5-(5-hydroxy-6-methylpyrimidine-4-carbonyl)-2,5-diazabicyclo[4.2.0]octan-2-yl)-2-methyl-8-oxopyrido[2,3-b]thiazolo[4,5-e]pyrazin-5(8H)-yl)acetamide] | 5 to 50 |  | < 500
7 | CCc1c(N2CCN(C(=O)c3ncnc(C)c3O)CC2)c(=O)c2nc3cc(C)sc3nc2n1CC(=O)NC12CC(C(F)(F)F)(C1)C2 [I-115, 2-(7-ethyl-6-(4-(5-hydroxy-6-methylpyrimidine-4-carbonyl)piperazin-1-yl)-2-methyl-5-oxopyrido[2,3-b]thieno[3,2-e]pyrazin-8(5H)-yl)-N-(3-(trifluoromethyl)bicyclo[1.1.1]pentan-1-yl)acetamide] | 5 to 50 |  | > 5000
8 | CCc1c(N2CCN(C(=O)c3ncnc(C)c3O)CC2)c(=O)c2nc3c(nc2n1CC(=O)Nc1ccc(C(F)(F)F)cc1Cl)CCN3C [I-116, N-(2-chloro-4-(trifluoromethyl)phenyl)-2-(6-ethyl-7-(4-(5-hydroxy-6-methylpyrimidine-4-carbonyl)piperazin-1-yl)-1-methyl-8-oxo-1,2,3,8-tetrahydro-5H-pyrido[2,3-b]pyrrolo[2,3-e]pyrazin-5-yl)acetamide] | 5 to 50 |  | 500 to 2000
9 | CCc1c(N2CCN(C(=O)c3ncnc(C)c3O)CC2)c(=O)c2nc(C=C3CC(OC)C3)cnc2n1CC(=O)Nc1ccc(C(F)(F)F)cc1Cl (centres unmarked) [I-117, N-(2-chloro-4-(trifluoromethyl)phenyl)-2-(6-ethyl-7-(4-(5-hydroxy-6-methylpyrimidine-4-carbonyl)piperazin-1-yl)-2-((3-methoxycyclobutylidene)methyl)-8-oxopyrido[2,3-b]pyrazin-5(8H)-yl)acetamide] | 5 to 50 |  | < 500
10 | CCc1c(N2CCN(C(=O)c3ncnc(C)c3O)C[C@@H]2C)c(=O)c2nc(N(C)C)nnc2n1CC(=O)Nc1ccc(C(F)(F)F)cc1Cl [I-118, (S)—N-(2-chloro-4-(trifluoromethyl)phenyl)-2-(3-(dimethylamino)-7-ethyl-6-(4-(5-hydroxy-6-methylpyrimidine-4-carbonyl)-2-methylpiperazin-1-yl)-5-oxopyrido[3,2-e] [1,2,4]triazin-8(5H)-yl)acetamide] | 5 to 50 |  | 500 to 2000
11 | CCc1c(N2CCN(C(=O)c3ncnc(C)c3O)[C@H]3CC[C@@H]32)c(=O)c2nc(N(C)C)cnc2n1CC(=O)Nc1ccc(OC(F)(F)F)cc1 [I-120, 2-[2-(dimethylamino)-6-ethyl-7-[(1S,6S)-5-(5-hydroxy-6-methylpyrimidine-4-carbonyl)-2,5-diazabicyclo[4.2.0]octan-2-yl]-8-oxo-5H,8H-pyrido[2,3-b]pyrazin-5-yl]-N-[4-(trifluoromethoxy)phenyl]acetamide] | 5 to 50 |  | < 500
12 | CCc1c(N2CCN(C(=O)c3ncnc(C)c3O)[C@H]3CC[C@@H]32)c(=O)c2nc(N(C)C)cnc2n1CC(=O)Nc1ccc(C(F)(F)F)cc1F [I-121, 2-(2-(dimethylamino)-6-ethyl-7-((1S,6S)-5-(5-hydroxy-6-methylpyrimidine-4-carbonyl)-2,5-diazabicyclo[4.2.0]octan-2-yl)-8-oxopyrido[2,3-b]pyrazin-5(8H)-yl)-N-(2-fluoro-4-(trifluoromethyl)phenyl)acetamide] | 5 to 50 |  | < 500
13 | CCc1c(N2CCN(C(=O)c3ncnc(C)c3O)[C@H]3CCC[C@@H]32)c(=O)c2nc3cc(C)oc3nc2n1CC(=O)Nc1ccc(C(F)(F)F)cc1Cl [I-123, 2-{11-[(4aS,7aS)-4-(5-hydroxy-6-methylpyrimidine-4-carbonyl)-octahydro-1H-cyclopenta[b]pyrazin-1-yl]-12-ethyl-5-methyl-10-oxo-4-oxa-2,8,13-triazatricyclo[7.4.0.0^{3,7}]trideca-1,3(7),5,8,11-pentaen-13-yl}-N-[2-chloro-4-(trifluoromethyl)phenyl]acetamide] | 5 to 50 |  | < 500
14 | CCc1c(N2CCN(C(=O)c3ncnc(C)c3O)[C@H]3CC[C@@H]32)c(=O)c2cc(N(C)C)cnc2n1CC(=O)Nc1ccc(C(F)(F)F)cc1Cl [I-124, N-[2-chloro-4-(trifluoromethyl)phenyl]-2-[6-(dimethylamino)-2-ethyl-3-[(1S,6S)-5-(5-hydroxy-6-methylpyrimidine-4-carbonyl)-2,5-diazabicyclo[4.2.0]octan-2-yl]-4-oxo-1,4-dihydro-1,8-naphthyridin-1-yl]acetamide] | 5 to 50 |  | < 500
15 | CCc1c(N2CCN(C(=O)c3ncnc(C)c3O)[C@H]3CC[C@@H]32)c(=O)c2nc(C3CC3)cnc2n1CC(=O)Nc1ccc(C(F)(F)F)cc1F [I-125, 2-(2-cyclopropyl-6-ethyl-7-((1S,6S)-5-(5-hydroxy-6-methylpyrimidine-4-carbonyl)-2,5-diazabicyclo[4.2.0]octan-2-yl)-8-oxopyrido[2,3-b]pyrazin-5(8H)-yl)-N-(2-fluoro-4-(trifluoromethyl)phenyl)acetamide] | ≤ 5 |  | < 500
16 | CCc1c(N2CCN(C(=O)c3ncnc(C)c3O)[C@H]3CC[C@@H]32)c(=O)c2nc(C)c(C)nc2n1CC(=O)Nc1ccc(C(F)(F)F)cc1Cl [I-126, N-(2-chloro-4-(trifluoromethyl)phenyl)-2-(6-ethyl-7-((1S,6S)-5-(5-hydroxy-6-methylpyrimidine-4-carbonyl)-2,5-diazabicyclo[4.2.0]octan-2-yl)-2,3-dimethyl-8-oxopyrido[2,3-b]pyrazin-5(8H)-yl)acetamide] | 5 to 50 |  | < 500
17 | CCc1c(N2CCN(C(=O)c3c(OC)ncc(C)c3O)[C@H]3CC[C@@H]32)c(=O)c2nc(C)c(C)nc2n1CC(=O)Nc1ccc(C(F)(F)F)cc1Cl [I-127, N-[2-chloro-4-(trifluoromethyl)phenyl]-2-{6-ethyl-7-[(1S,6S)-5-(4-hydroxy-2-methoxy-5-methylpyridine-3-carbonyl)-2,5-diazabicyclo[4.2.0]octan-2-yl]-2,3-dimethyl-8-oxo-5H,8H-pyrido[2,3-b]pyrazin-5-yl}acetamide] | 5 to 50 |  | < 500
18 | CCc1c(N2CCN(C(=O)c3ncnc(C)c3O)[C@H]3CC[C@@H]32)c(=O)c2nc(C)c(C)nc2n1CC(=O)Nc1ccc(C(F)(F)F)cc1F [I-128, 2-(6-ethyl-7-((1S,6S)-5-(5-hydroxy-6-methylpyrimidine-4-carbonyl)-2,5-diazabicyclo[4.2.0]octan-2-yl)-2,3-dimethyl-8-oxopyrido[2,3-b]pyrazin-5(8H)-yl)-N-(2-fluoro-4-(trifluoromethyl)phenyl)acetamide] | 5 to 50 |  | < 500
19 | CCc1c(N2CCN(C(=O)c3ncnc(C)c3O)[C@H]3CC[C@@H]32)c(=O)c2nc(N(C)C)c(C)nc2n1CC(=O)Nc1ccc(C(F)(F)F)cc1F [I-129] | 5 to 50 |  | < 500

Source: US20250034136A1 (Nimbus Wadjet, Inc., priority 2023, published 2025)
